In the RepoRT retention time repository:

assay: Agilent ZORBAX 300 SB-C18, 150 × 1 mm, 3.5 µm; A: water + 0.01% heptafluorobutyric acid; B: acetonitrile + 0.01% heptafluorobutyric acid; gradient (min/%B) 0/0 100/90; conditions: stereoisomer not certain

| SMILES | LC retention time [min] |
| --- | --- |
| COC(=O)c1ccc(NC(=O)Nc2cccc3ccccc23)cc1 | 14.3 |
| Nc1cccc2oc3ccccc3c12 | 11.6 |
| COc1ccc(-c2oc3ccccc3c(=O)c2OC)cc1OC | 13.4 |
| C[N+]12CCC(CC1)C1CC(O)CCC12 (configuration not stated) | 6.39 |
| Cc1c(C(=O)Nc2ccccn2)c(C(C)N=Nc2ccccc2)cc(=O)n1-c1ccccn1 (configuration not stated) | 11.7 |
| O=C1C(=Cc2ccco2)C(=O)c2ccccc21 | 14 |
| c1cc(CCc2ccncc2)ccn1 | 7.28 |
| Cc1cc(C(=O)N2CCCCC2)c2c(=O)n(CC(=O)Nc3ccccc3)c(=O)n(-c3ccccc3)c2n1 | 13.5 |
| O=C(O)c1ccc2c(c1)C1C=CCC1C(c1cccc3ccccc13)N2 (configuration not stated) | 16.1 |
| CCN(CC)c1ccc(C=NNC(=O)C(C)Nc2ccc3ccccc3c2)cc1 (configuration not stated) | 14.3 |
| COc1ccccc1C=NNC(=O)c1ccc(C(C)(C)C)cc1 | 15.3 |
| Cc1ccccc1C=NNC(=O)C(O)(c1ccccc1)c1ccccc1 | 14.5 |
| NC(=O)CCCCCCCCCC(Cc1ccccc1)C(=O)O (configuration not stated) | 13.3 |
| CCNCCNCC | 6.88 |
| CC(NC(=O)c1cccnc1)C(=O)N1CCCCC1 (configuration not stated) | 8.28 |
| CCCC(=O)Nc1ccc(N)cc1 | 7.75 |
| O=c1[nH]c(N=NCc2ccccc2O)nnc1Cc1ccccc1 | 11.4 |
| NC(=O)Nc1ccccc1 | 7.26 |
| Cn1c(=O)c2c(-c3ccccc3)n(Cc3ccccc3)cc2n(C)c1=O | 14.3 |
| Cc1cccc(CN2CCN(CN3C(=O)c4ccccc4C3=O)CC2)c1 | 10.3 |
| Cc1cc(C(N)=O)c2ccccc2n1 | 7 |
| CC(C)Nc1ccccc1 | 8.04 |
| O=C1c2ccccc2CN1CCNC(=S)NC1CCCCC1 | 12 |
| Cc1cccc2c(=O)cc(-c3ccccc3)oc12 | 15.4 |
| O=C(O)Cc1c(C(=O)O)[nH]c2ccc(C(=O)O)cc12 | 7.21 |
| O=C(O)c1ccc(=O)[nH]c1 | 4.42 |

| SMILES | LC retention time [min] |
| --- | --- |
| C#Cc1cncn1C | 6.39 |
| CCN(CC)c1ccc(C=Nc2ccccc2)c(O)c1 | 11.5 |
| COc1cc2c(cc1OC)NC(=O)C2 | 7.73 |
| CCCNC | 5.85 |
| O=C(c1n[nH]c(=O)c2ccccc12)N1CCN(C(c2ccccc2)c2ccccc2)CC1 | 11.4 |
| CCOc1ccc(Cc2c(O)n(-c3ccc(CC)cc3)c(=O)[nH]c2=O)cc1 | 14.4 |
| Cc1cc(C)c(C=CC(=O)c2cccs2)c(C)c1 | 18.2 |
| CCCNC(=O)Nc1ccc(C(=O)OC)cc1 | 10.8 |
| NC(=O)C1(N2CCCCC2)CCN(C(=O)C2CCCCC2)CC1 | 8.4 |
| COc1ccc(N(C)C(=O)c2cccc(C(=O)N(C)c3ccc(OC)cc3)c2)cc1 | 12.6 |
| Cc1ccc(Nc2cc(=O)oc3ccccc23)cc1C | 14.2 |
| CCn1c(-c2ccccc2)nn(CN2CCCC2)c1=S | 11.8 |
| COc1ccc(C=CC(C)=O)cc1 | 12 |
| NCCOc1ccc2ccccc2c1 | 9.22 |
| c1ccc(-c2cnc(-c3ccncc3)o2)cc1 | 11.9 |
| CCOc1cc(NC(C)=O)ccc1C(=O)NN=Cc1cccc(Oc2ccccc2)c1 | 14.3 |
| CCn1c2ccccc2c2cc(CNC3CC3)ccc21 | 10.8 |
| CN1CCCC1 | 5.54 |
| Nc1ccccc1OCCOc1ccccc1N | 8.96 |
| OC(CCN1CCCC1)(c1ccccc1)C1CCCCC1 (configuration not stated) | 11.5 |
| C=Cc1ccc(CN(C)C)cc1 | 8.6 |
| CN1Cc2ccccc2CC1C(=O)O (configuration not stated) | 6.42 |
| O=C(O)CCCCC1SCC2NC(=O)NC21 (configuration not stated) | 7.67 |
| CCCCCCCCCCCCCC(N)=O | 19.7 |
| NC(=O)C1CCN(C(=O)c2ccco2)CC1 | 6.85 |
| CCOC1COCC1N (configuration not stated) | 6.48 |

| SMILES | LC retention time [min] |
| --- | --- |
| Cc1cccc(CN2CCN(C(=O)CC(C)C)CC2)c1 | 9.36 |
| Cc1cc(C)nc(NC(N)=NCCC(C)C)n1 | 10.3 |
| C=CCNc1ccccc1 | 9.55 |
| c1csc(CN2CCNCC2)c1 | 7.6 |
| Cc1cccc(-n2c(C)nc3ccccc3c2=O)c1 | 11.9 |
| Cc1[nH]c2ccccc2c1C=NNC(N)=S | 9.71 |
| CC(C)(C)c1ccc(C(=O)NCc2ccccc2)o1 | 14.8 |
| NCCCSc1ccccc1 | 8.67 |
| Cc1ccc2[nH]c(=O)c(C=NC(CO)(CO)CO)c(O)c2c1 | 7.75 |
| C#CC(C)(C)NC(=O)NC(C)(C)C#C | 9.95 |
| CN(C)c1ccc(C=NNC(N)=S)cc1 | 9.84 |
| CCC(C)C(NC(=O)C1CCCN1)C(=O)O (configuration not stated) | 7.86 |
| COc1ccc(C=CC(=O)C=Cc2ccc(OC)cc2OC)c(OC)c1 | 16.6 |
| CC1(C)CC(=O)C=C(NCC2NCCc3ccccc32)C1 (configuration not stated) | 8.52 |
| Cc1ccccn1 | 6.01 |
| c1ccc2[nH]c(CCn3c4c(c5ccccc53)CCCC4)nc2c1 | 12 |
| CCCCCCCCCCCC[N+](C)(C)CCOc1ccccc1 | 16.6 |
| Cc1ccc2nc(-c3nn[nH]n3)ccc2c1 | 10.5 |
| CCNCC(O)CC (configuration not stated) | 6.36 |
| CNCCCn1c(=O)[nH]c2ccccc21 | 7.64 |
| COc1ccccc1NC(=O)c1ccc(COc2ccc3c(c2)CCC3)cc1 | 19.2 |
| CC1=NC(=O)NC(C2CC=CCC2)C1C(=O)OC(C)C (configuration not stated) | 12.3 |
| CC(C)c1cccc(C(C)C)c1NC(=O)COC(=O)CNC(=O)c1ccc(C(C)(C)C)cc1 | 17.6 |
| O=C(O)C1CCCN1Cc1ccccc1 (configuration not stated) | 6.6 |
| O=C(Nc1ccccc1)C(=O)NC(CO)(CO)CO | 8.16 |
| Cc1cc(C=O)c(C)n1-c1ccccc1 | 13 |

| SMILES | LC retention time [min] |
| --- | --- |
| CCCNC(=O)c1c[nH]c2ccccc12 | 9.96 |
| O=C(OCC(c1ccccc1)c1ccccc1)c1cccnc1 | 15.9 |
| O=C1CCNc2cc3ccccc3cc21 | 12.1 |
| CC(=O)Nc1cc(NC(C)=O)nc(NC(C)=O)n1 | 7.21 |
| CCOC(=O)C(Cc1ccccc1)n1cccc1 (configuration not stated) | 15.9 |
| COc1ccc(C=Cc2nc(=O)c3ccccc3o2)cc1 | 13.8 |
| O=C(C(=O)c1cccs1)c1ccccc1 | 14.4 |
| c1ccc(CCn2c(-c3ccccc3)csc2=Nc2ccccc2)cc1 | 13.8 |
| C[N+]1(C)CCCCC1 | 5.95 |
| C=CCC1(C(C)CCC)C(=O)NC(=O)NC1=O (configuration not stated) | 11.4 |
| CC1(C)CC(NC(=O)c2ccccc2C(=O)NC2CC(C)(C)NC(C)(C)C2)CC(C)(C)N1 | 7.61 |
| CCn1c2ccccc2c2ccccc21 | 17.5 |
| CC1CCCCN1C(=O)c1ccccc1NC(=O)c1ccco1 (configuration not stated) | 12.4 |
| Oc1cccc(N2Cc3ccccc3C2)c1 | 13.9 |
| NCCCCCCCCCCCCN | 8.26 |
| Cc1cc(C)nc(SCc2nc3ccccc3nc2C)n1 | 13.2 |
| Cn1c(N)nc2nc[nH]c2c1=O | 6.36 |
| COc1ccccc1NC(=O)C(c1ccccc1)c1ccccc1 | 16.6 |
| Cn1ccnc1 | 3.76 |
| O=C(O)CC(NC(=O)OCc1ccccc1)C(=O)O (configuration not stated) | 9.01 |
| NCCN1CCNCC1 | 6.42 |
| Nc1c2ccccc2nc2ccccc12 | 8.38 |
| Nc1ccc(CCc2ccncc2)cc1 | 7.22 |
| CC(C)c1ccccc1NC(=O)CN | 8.61 |
| O=c1[nH]c(=O)n(CCc2ccccc2)c2c1CN(C1CCCC1)CN2 | 8.61 |
| CCCC(C)N (configuration not stated) | 7.09 |

| SMILES | LC retention time [min] |
| --- | --- |
| COc1cc(N)c(N2CCOCC2)cc1OC | 7.99 |
| Cc1ccc(N)cc1N | 6.85 |
| Cc1ccccc1CN1CCN(Cc2c[nH]c3ccccc23)CC1 | 10.8 |
| COc1ccc(-c2cc(=O)c3ccc(OC)c(OC)c3o2)cc1OC | 12.7 |
| Cc1ccc(-n2c(O)c(C=Nc3ccc(O)cc3C)c(=O)[nH]c2=O)cc1 | 10.9 |
| O=C(O)CCCc1ccncc1 | 6.69 |
| COc1ccc(OC)c2c1C(c1cccc(N)c1)OC1CCCCC21 (configuration not stated) | 12.9 |
| CC(C)(C)c1ccc2[nH]c3c(c2c1)CCCC3=O | 16.5 |
| c1ccc(Nc2nc(-c3ccccc3)nc3ccccc23)cc1 | 11.9 |
| CC(=O)Nc1nc(=S)n(-c2ccccc2)[nH]1 | 9.02 |
| c1ccc(CC2CCN(Cc3ccccn3)CC2)cc1 | 10.1 |
| O=C(O)c1cc(-c2ccccc2)nc2ccccc12 | 11.6 |
| O=C1CC(N2CCN(Cc3ccccc3)CC2)C(=O)N1Cc1ccccc1 (configuration not stated) | 9.91 |
| COc1ccccc1CC(=O)Nc1cccc(C)c1 | 13.9 |
| CC(CCc1ccccc1)NCc1ccco1 (configuration not stated) | 9.89 |
| CNC(=O)NC | 1.96 |
| CCCCN1CCCC1 | 7.55 |
| CC(C)NC(C)C | 7.12 |
| CN1CCCN(C)C1=O | 6.94 |
| CC(C)=CCN1CC2(C)c3cc(O)ccc3CC1C2C (configuration not stated) | 10.3 |
| Nc1nc(=O)n2c(n1)oc1ccccc12 | 7.8 |
| CCCNC(=O)N1CCCC(C(N)=O)C1 (configuration not stated) | 6.98 |
| Cc1ccc(C=CC(=O)c2ccccc2O)cc1 | 16.1 |
